Assay results: patent publication US9260425B2 (Genetech, Inc., priority 2011, dated 2016)

What follows are molecules tested against Pim-1 (Homo sapiens (Human), UniProt P11309) (assay: Pim kinase binding activity assay (Example 901), PIM-1 enzyme, Caliper microfluidic peptide phosphorylation). Conditions: 20 pM PIM-1, 10 μM ATP, 1 μM FAM-peptide, 90 minutes at room temperature.
Format: biochemical
Method in brief: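 The readout was microfluidic mobility-shift separation of a FAM-tagged Pim-specific peptide, excited at 488 nm and read at 530 nm, with Ki calculated from percent conversion. Reactions held 20 pM PIM-1, 1 μM peptide and 10 μM ATP in pH 7.2 HEPES/MgCl2/DTT buffer, ran 90 min at room temperature and were stopped with EDTA.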

Sequence of Pim-1 (P11309 whole entry): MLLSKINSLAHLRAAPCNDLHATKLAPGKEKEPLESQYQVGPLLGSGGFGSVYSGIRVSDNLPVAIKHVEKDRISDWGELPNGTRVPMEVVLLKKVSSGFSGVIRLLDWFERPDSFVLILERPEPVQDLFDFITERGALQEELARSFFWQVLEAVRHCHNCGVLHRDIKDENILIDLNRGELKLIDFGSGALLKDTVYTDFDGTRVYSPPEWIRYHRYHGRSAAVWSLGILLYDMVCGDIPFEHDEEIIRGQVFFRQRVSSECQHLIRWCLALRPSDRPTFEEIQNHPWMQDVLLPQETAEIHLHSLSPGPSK

In order of rising Ki:
1. N[C@H]1CCCN(c2nc(-c3n[nH]c4cnc(-c5cccnc5)cc34)ccc2C2CC2)C1 [Example 485, (S)-1-(3-cyclopropyl-6-(5-(pyridin-3-yl)-1H-pyrazolo[3,4-c]pyridin-3-yl)pyridin-2-yl)piperidin-3-amine]  0.022 nM
2. CCn1cc(-c2cc3c(-c4ccc(C)c(N5CCC[C@H](N)C5)n4)n[nH]c3cn2)cn1 [Example 430, (S)-1-(6-(5-(1-ethyl-1H-pyrazol-4-yl)-1H-pyrazolo[3,4-c]pyridin-3-yl)-3-methylpyridin-2-yl)piperidin-3-amine]  0.027 nM
3. C[C@H]1CN(c2cccc(-c3n[nH]c4cnc(-c5cnn(CCF)c5)cc34)n2)CCN1 [Example 503, (S)-5-(1-(2-fluoroethyl)-1H-pyrazol-4-yl)-3-(6-(3-methylpiperazin-1-yl)pyridin-2-yl)-1H-pyrazolo[3,4-c]pyridine]  0.0294 nM
4. Cn1cc(-c2cc3c(-c4ccc(Br)c(N5C[C@@H](N)C[C@@H](F)C5)n4)n[nH]c3cn2)cn1 [Example 456, (3S,5R)-1-(3-bromo-6-(5-(1-methyl-1H-pyrazol-4-yl)-1H-pyrazolo[3,4-c]pyridin-3-yl)pyridin-2-yl)-5-fluoropiperidin-3-amine]  0.03 nM
5. Cn1cc(-c2cc3c(-c4ccc(Br)c(N5CCC(N)CC5)n4)n[nH]c3cn2)cn1 [Example 392, 1-(3-bromo-6-(5-(1-methyl-1H-pyrazol-4-yl)-1H-pyrazolo[3,4-c]pyridin-3-yl)pyridin-2-yl)piperidin-4-amine]  0.03 nM
6. CCn1cc(-c2cc3c(-c4ccc(C)c(N5C[C@@H](N)C[C@@H](F)C5)n4)n[nH]c3cn2)cn1 [Example 510, (3S,5R)-1-(6-(5-(1-ethyl-1H-pyrazol-4-yl)-1H-pyrazolo[3,4-c]pyridin-3-yl)-3-methylpyridin-2-yl)-5-fluoropiperidin-3-amine]  0.03 nM
7. C=Cc1ccc(-c2n[nH]c3cnc(-c4cnn(C)c4)cc23)nc1N1CCC[C@H](N)C1 [Example 412, (S)-1-(6-(5-(1-methyl-1H-pyrazol-4-yl)-1H-pyrazolo[3,4-c]pyridin-3-yl)-3-vinylpyridin-2-yl)piperidin-3-amine]  0.036 nM
8. Cn1cc(-c2cc3c(-c4cccc(N5CCNCC5)n4)n[nH]c3cn2)cn1 [Example 234, 5-(1-methyl-1H-pyrazol-4-yl)-3-(6-(piperazin-1-yl)pyridin-2-yl)-1H-pyrazolo[3,4-c]pyridine]  0.036 nM
9. CCCn1cc(-c2cc3c(-c4cccc(N5CCNCC5)n4)n[nH]c3cn2)cn1 [Example 375, 3-(6-(piperazin-1-yl)pyridin-2-yl)-5-(1-propyl-1H-pyrazol-4-yl)-1H-pyrazolo[3,4-c]pyridine]  0.039 nM
10. C[C@]1(N)CCCN(c2cccc(-c3n[nH]c4cnc(-c5cccnc5)cc34)n2)C1 [Example 343, (S)-3-methyl-1-(6-(5-(pyridin-3-yl)-1H-pyrazolo[3,4-c]pyridin-3-yl)pyridin-2-yl)piperidin-3-amine]  0.045 nM
11. O[C@H]1CCN(c2nc(-c3n[nH]c4cnc(-c5cccnc5)cc34)ccc2Br)C1 [Example 318, (S)-1-(3-bromo-6-(5-(pyridin-3-yl)-1H-pyrazolo[3,4-c]pyridin-3-yl)pyridin-2-yl)pyrrolidin-3-ol]  0.059 nM
12. CCn1cc(-c2cc3c(-c4cncc(N5CCNCC5)n4)n[nH]c3cn2)cn1 [Example 479, 5-(1-ethyl-1H-pyrazol-4-yl)-3-(6-(piperazin-1-yl)pyrazin-2-yl)-1H-pyrazolo[3,4-c]pyridine]  0.064 nM
13. Cn1cc(-c2cc3c(-c4cccc(N5CCC(N)CC5)n4)n[nH]c3cn2)cn1 [Example 174, 1-(6-(5-(1-methyl-1H-pyrazol-4-yl)-1H-pyrazolo[3,4-c]pyridin-3-yl)pyridin-2-yl)piperidin-4-amine]  0.086 nM
14. Cn1cc(-c2cc3c(-c4ccnc(N5CCC[C@H](N)C5)n4)n[nH]c3cn2)cn1 [Example 365, (S)-1-(4-(5-(1-methyl-1H-pyrazol-4-yl)-1H-pyrazolo[3,4-c]pyridin-3-yl)pyrimidin-2-yl)piperidin-3-amine]  0.0941 nM
15. Cn1cc(-c2cc3c(-c4cccc(N5C[C@@H](N)C[C@@H](F)C5)n4)n[nH]c3cn2)cn1 [Example 495, (3S,5R)-5-fluoro-1-(6-(5-(1-methyl-1H-pyrazol-4-yl)-1H-pyrazolo[3,4-c]pyridin-3-yl)pyridin-2-yl)piperidin-3-amine]  0.122 nM
16. NCCC1CCN(c2cccc(-c3n[nH]c4cnc(-c5cccnc5)cc34)n2)C1 (stereo not drawn) [Example 333, 2-(1-(6-(5-(pyridin-3-yl)-1H-pyrazolo[3,4-c]pyridin-3-yl)pyridin-2-yl)pyrrolidin-3-yl)ethanamine]  0.13 nM
17. OCCn1cc(-c2cc3c(-c4cccc(N5CCNCC5)n4)n[nH]c3cn2)cn1 [Example 496, 2-(4-(3-(6-(piperazin-1-yl)pyridin-2-yl)-1H-pyrazolo[3,4-c]pyridin-5-yl)-1H-pyrazol-1-yl)ethanol]  0.13 nM
18. CCn1cc(-c2cc3c(-c4cccc(N5C[C@@H](N)C[C@@H](F)C5)n4)n[nH]c3cn2)cn1 [Example 385, (3S,5R)-1-(6-(5-(1-ethyl-1H-pyrazol-4-yl)-1H-pyrazolo[3,4-c]pyridin-3-yl)pyridin-2-yl)-5-fluoropiperidin-3-amine]  0.131 nM
19. OC1CCN(c2nc(-c3n[nH]c4cnc(-c5cccnc5)cc34)ccc2Br)CC1 [Example 292, 1-(3-bromo-6-(5-(pyridin-3-yl)-1H-pyrazolo[3,4-c]pyridin-3-yl)pyridin-2-yl)piperidin-4-ol]  0.181 nM
20. Cn1cc(-c2cc3c(-c4cccc(C5CCNCC5)n4)n[nH]c3cn2)cn1 [Example 247, 5-(1-methyl-1H-pyrazol-4-yl)-3-(6-(piperidin-4-yl)pyridin-2-yl)-1H-pyrazolo[3,4-c]pyridine]  0.224 nM
21. N[C@@H]1CN(c2cccc(-c3n[nH]c4cnc(-c5cccnc5)cc34)n2)CC[C@H]1F (relative stereo) [Example 453, trans-4-fluoro-1-(6-(5-(pyridin-3-yl)-1H-pyrazolo[3,4-c]pyridin-3-yl)pyridin-2-yl)piperidin-3-amine]  0.296 nM
22. Cn1cc(-c2cc3c(-c4ccnc(N5CCCCC5)n4)n[nH]c3cn2)cn1 [Example 360, 5-(1-methyl-1H-pyrazol-4-yl)-3-(2-(piperidin-1-y1)pyrimidin-4-yl)-1H-pyrazolo[3,4-c]pyridine]  0.366 nM
23. Cn1cc(-c2cc3c(-c4ccc(Br)c(N5CC(N6CCNC(=O)C6)C5)n4)n[nH]c3cn2)cn1 [Example 405, 4-(1-(3-bromo-6-(5-(1-methyl-1H-pyrazol-4-yl)-1H-pyrazolo[3,4-c]pyridin-3-yl)pyridin-2-yl)azetidin-3-yl)piperazin-2-one]  0.527 nM
24. CCn1cc(-c2cc3c(-c4cccc(N5CC[C@@H](F)[C@H](N)C5)n4)n[nH]c3cn2)cn1 (relative stereo) [Example 462, trans-1-(6-(5-(1-ethyl-1H-pyrazol-4-yl)-1H-pyrazolo[3,4-c]pyridin-3-yl)pyridin-2-yl)-4-fluoropiperidin-3-amine]  0.55 nM
25. N[C@@H]1CCCN(c2cccc(-c3n[nH]c4cnc(-n5ccnc5)cc34)n2)C1 [Example 369, (R)-1-(6-(5-(1H-imidazol-1-yl)-1H-pyrazolo[3,4-c]pyridin-3-yl)pyridin-2-yl)piperidin-3-amine]  1.13 nM
26. NC[C@H]1CCN(c2cncc(-c3cc4c(-c5ccccc5F)n[nH]c4cn3)c2)C1 [Example 164, (R)-(1-(5-(3-(2-fluorophenyl)-1H-pyrazolo[3,4-c]pyridin-5-yl)pyridin-3-yl)pyrrolidin-3-yl)methanamine]  1.9 nM
27. c1cc(-c2n[nH]c3cnc(-n4ccnc4)cc23)nc(N2CCCCC2)c1 [Example 363, 5-(1H-imidazol-1-yl)-3-(6-(piperidin-1-yl)pyridin-2-yl)-1H-pyrazolo[3,4-c]pyridine]  2.41 nM
28. COc1ccc(F)c(-c2n[nH]c3cnc(-c4cnn(C)c4)cc23)c1 [Example 172, 3-(2-fluoro-5-methoxyphenyl)-5-(1-methyl-1H-pyrazol-4-yl)-1H-pyrazolo[3,4-c]pyridine]  3.76 nM
29. NC1CCN(C(=O)c2cccc(-c3n[nH]c4cnc(-c5cccnc5)cc34)n2)CC1 [Example 336, (4-aminopiperidin-1-yl)(6-(5-(pyridin-3-yl)-1H-pyrazolo[3,4-c]pyridin-3-yl)pyridin-2-yl)methanone]  12.7 nM
30. NC(=O)Nc1cc2c(-c3cccc(N4CCC[C@H](N)C4)n3)n[nH]c2cn1 [Example 298, (S)-1-(3-(6-(3-aminopiperidin-1-yl)pyridin-2-yl)-1H-pyrazolo[3,4-c]pyridin-5-yl)urea]  14.1 nM
31. c1ccc(-c2n[nH]c3cnc(-c4cncs4)cc23)nc1 [Example 338, 5-(3-(pyridin-2-yl)-1H-pyrazolo[3,4-c]pyridin-5-yl)thiazole]  24.5 nM
32. Fc1ccccc1-c1n[nH]c2cnc(-c3cnc[nH]3)cc12 [Example 218, 3-(2-fluorophenyl)-5-(1H-imidazol-5-yl)-1H-pyrazolo[3,4-c]pyridine]  30.9 nM
33. CCn1cc(-c2cc3c(-c4cc(C(F)(F)F)ccn4)n[nH]c3cn2)cn1 [Example 469, 5-(1-ethyl-1H-pyrazol-4-yl)-3-(4-(trifluoromethyl)pyridin-2-yl)-1H-pyrazolo[3,4-c]pyridine]  65.6 nM
34. c1ccc(-c2n[nH]c3cnc(-c4cncnc4)cc23)cc1 [Example 150, 3-phenyl-5-(pyrimidin-5-yl)-1H-pyrazolo[3,4-c]pyridine]  209 nM
35. CN1C(=O)CN(c2cc3c(-c4ccccc4)n[nH]c3cn2)C1=O [Example 355, 3-methyl-1-(3-phenyl-1H-pyrazolo[3,4-c]pyridin-5-yl)imidazolidine-2,4-dione]  809 nM
36. NC[C@@H]1CCN(c2ccncc2-c2cc3c(-c4ccccc4F)n[nH]c3cn2)C1 [Example 130, (S)-(1-(3-(3-(2-fluorophenyl)-1H-pyrazolo[3,4-c]pyridin-5-yl)pyridin-4-yl)pyrrolidin-3-yl)methanamine]  1500 nM
